Patent US20090264342A1, “COMPOSITIONS AND METHODS FOR ANTIBIOTIC POTENTIATION AND DRUG DISCOVERY” (priority 2006, published 2009)
Converted amounts (≈) assume the structure as drawn.

Test system: S. aureus strains wt, recAmut, grlA542, grlA542recAmut
Experiment: MIC for S. aureus wt, recAmut, grlA542 and grlA542recAmut strains
Format: cell-based
Conditions: Staphylococcus aureus

`CCn1cc(C(=O)O)c(=O)c2cc(F)c(N3CCNCC3)cc21` [Nor, norfloxacin] was tested. Which MIC (strain grlA542 (quinolone resistant)) did it give?
The MIC was 12.5 µg/mL (≈ 39.1 µM).

What about the MIC (strain grlA542recAmut) of the same compound?
The MIC was 1.56 µg/mL (≈ 4.89 µM).

And the MIC (strain recAmut)?
The MIC was 0.19 µg/mL (≈ 0.595 µM).

And the MIC (strain wt)?
The MIC was 0.78 µg/mL (≈ 2.44 µM).
